These results are taken from patent US20240408169A1 (priority 2023, published 2024).

*1 amine or outer side, *2 acyl side, *3 side chain or, on linkers, in order; H or OH if unused. Where a SMILES comes first, the peptide text is derived from it. Bridges are numbered along the chain shown (N, C = ends). [ ]: non-standard residue; d: D form. The star is where a group is joined. NMePhe(2-(4-MorPh),5-Cl) = CN[C@@H](Cc1cc(Cl)ccc1-c1ccc(N2CCOCC2)cc1)C(=O)O; X50 = CN([C@@H](Cc1cc(Cl)ccc1-c1ccc(N2CCN(C3COC3)CC2)cc1)C(=O)[*:2])[*:1]; X107 = CN([C@@H](Cc1cc(Cl)ccc1-c1ccc(-c2cnn(C)c2)cc1)C(=O)[*:2])[*:1]; X114 = CN([C@@H](Cc1cc(Cl)ccc1-c1ccc(OCCN2CCOCC2)cc1)C(=O)[*:2])[*:1]; X11 = CN1CCN(c2ccc(-c3ccc(Cl)cc3C[C@@H](C(=O)[*:2])N(C)[*:1])cc2)CC1; X115 = CN([C@@H](Cc1cc(Cl)ccc1-c1ccc(N2CCNCC2)cc1)C(=O)[*:2])[*:1]; X93 = CN([C@@H](Cc1cc(Cl)ccc1-c1ccc(OC2CCOCC2)cc1)C(=O)[*:2])[*:1]; X87 = CN([C@@H](Cc1cc(F)ccc1-c1ccc(N2CCOCC2)cc1)C(=O)[*:2])[*:1]; NMehhhLys(Me) = CN([C@@H](CCCCCCCN(C)[*:3])C(=O)[*:2])[*:1]; cBuCO(3,3-F2-1-CF3) = O=C(C1(C(F)(F)F)CC(F)(F)C1)*; Pro(trans-4-F) = O=C(O)[C@@H]1C[C@@H](F)CN1; Pivaloyl(3,3,3-F3) = CC(C)(C(=O)*)C(F)(F)F; Gly(cPr) = N[C@H](C(=O)O)C1CC1

Test [1] concerns WI-38 cells. In words: MTT proliferation assay, WI-38.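 Note: Eight- or ten-point dilution series, with exposure length chosen to span about three to four cell doublings.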 Type of test: cell-based. The settings on record: 3 days compound exposure, 1:3 serial dilution starting at 10 μM.
For test [2], the system named is NCI-H1048 cells. In words: MTT proliferation assay, NCI-H1048.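 Note: Dose-response in 96-well plates over 8 or 10 concentration points, with exposure spanning 3-4 cell doublings.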 Type of test: cell-based. The settings on record: 5 days compound exposure, 1:3 serial dilution starting at 10 μM.
Test [3] has as its target T1, CyclinB1/CDK1 (Homo sapiens, UniProt P14635).
T1 construct: purchased Eurofins, discovery 14-450
As to the kind of experiment: Fluorescence Polarization (FP) competitive binding assay, Cyclin B1/Cdk1.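 Note: fluorescence polarization read after equilibration at room temperature, with IC50 taken from serially diluted dose-response curves.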 Particulars: 10 nM Cyclin B1/Cdk1, 2 nM FAM probe; average of 2-3 independent experiments; read-out: Cyclin B FP IC50.

Test [4] has as its target T2, CyclinE1/CDK2 (Homo sapiens, UniProt P24864).
T2 construct: purchased Eurofins, discovery 14-475
In words: Fluorescence Polarization (FP) competitive binding assay, Cyclin E1/Cdk2.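 Note: readings taken after two-hour equilibration at room temperature in HEPES buffer with NaCl, DTT, NP-40 and BSA, IC50 fitted from eight-concentration serial dilution series.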 The settings on record: 10 nM Cyclin E1/Cdk2, 2 nM FAM probe; average of 2-3 independent experiments; read-out: Cyclin E FP IC50.

Test [5] concerns OVCAR3 cells. As to the kind of experiment: MTT proliferation assay, OVCAR3.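 Note: compound given as an 8- or 10-point series, one day after plating, with exposure covering roughly 3-4 cell doublings.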 The settings on record: 5 days compound exposure, 1:3 serial dilution starting at 10 μM. The test is classed as cell-based.
In test [6] the target is T3, CyclinA2/CDK2 (Homo sapiens, UniProt P20248).
T3 construct: purchased CRELUX Protein Services
In words: Fluorescence Polarization (FP) competitive binding assay, Cyclin A2/Cdk2.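 Note: plates equilibrated two hours at room temperature before polarization reading, IC50 fitted from eight-concentration compound titration curves.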 The settings on record: 8 nM Cyclin A2/Cdk2, 2 nM FAM probe; average of 2-3 independent experiments; read-out: Cyclin A FP IC50.

As to `CC(C)C[C@@H]1NC(=O)[C@@H](N(C)C(=O)[C@@H](NC(=O)[C@@H]2C[C@@H](F)CN2C(=O)C(C)(C)C(F)(F)F)C2CC2)CCCCCCCN(C)C(=O)[C@H](Cc2cc(Cl)ccc2-c2ccc(N3CCOCC3)cc2)N(C)C1=O` [Example 335] ({Pivaloyl(3,3,3-F3)}-[Pro(trans-4-F)][Gly(cPr)][NMehhhLys(Me)]L[NMePhe(2-(4-MorPh),5-Cl)]; lactam 3-C), the GI50 was found to be 4750 nM in test [1], 10 nM in test [2] and 10 nM in test [5]. Also, the IC50 is 20 nM in test [3], 160 nM in test [4] and 20 nM in test [6].

As for `CC(C)C[C@@H]1NC(=O)[C@@H](N(C)C(=O)[C@@H](NC(=O)[C@@H]2C[C@@H](F)CN2C(=O)C2(C(F)(F)F)CC(F)(F)C2)C2CC2)CCCCCCCN(C)C(=O)[C@H](Cc2cc(Cl)ccc2-c2ccc(N3CCN(C)CC3)cc2)N(C)C1=O` [Example 336] ({cBuCO(3,3-F2-1-CF3)}-[Pro(trans-4-F)][Gly(cPr)][NMehhhLys(Me)]L[X11]; lactam 3-C), the GI50 in test [1] came to 2480 nM; in test [2] it was 10 nM; in test [5], 10 nM. For the same compound, the IC50 in test [3] was 20 nM; in test [4] it was 420 nM; in test [6] it was 20 nM.

With `CC(C)C[C@@H]1NC(=O)[C@@H](N(C)C(=O)[C@@H](NC(=O)[C@@H]2C[C@@H](F)CN2C(=O)C2(C(F)(F)F)CC(F)(F)C2)C2CC2)CCCCCCCN(C)C(=O)[C@H](Cc2cc(F)ccc2-c2ccc(N3CCOCC3)cc2)N(C)C1=O` [Example 337] ({cBuCO(3,3-F2-1-CF3)}-[Pro(trans-4-F)][Gly(cPr)][NMehhhLys(Me)]L[X87]; lactam 3-C), the figures for the GI50 in test [1], in test [2] and in test [5] were 18700 nM, 10 nM and 10 nM, respectively. In addition, the IC50 in test [3] was determined as 20 nM; in test [4] it was 190 nM; in test [6], 20 nM.

With `CC(C)C[C@@H]1NC(=O)[C@@H](N(C)C(=O)[C@@H](NC(=O)[C@@H]2C[C@@H](F)CN2C(=O)C2(C(F)(F)F)CC(F)(F)C2)C2CC2)CCCCCCCN(C)C(=O)[C@H](Cc2cc(Cl)ccc2-c2ccc(-c3cnn(C)c3)cc2)N(C)C1=O` [Example 338] ({cBuCO(3,3-F2-1-CF3)}-[Pro(trans-4-F)][Gly(cPr)][NMehhhLys(Me)]L[X107]; lactam 3-C), the GI50 was 18900 nM in test [1], 20 nM in test [2] and 20 nM in test [5]. For the same compound, the figures for the IC50 in test [3], in test [4] and in test [6] were 20 nM, 1700 nM and 30 nM, respectively.

For `CC(C)C[C@@H]1NC(=O)[C@@H](N(C)C(=O)[C@@H](NC(=O)[C@@H]2C[C@@H](F)CN2C(=O)C2(C(F)(F)F)CC(F)(F)C2)C2CC2)CCCCCCCN(C)C(=O)[C@H](Cc2cc(Cl)ccc2-c2ccc(OCCN3CCOCC3)cc2)N(C)C1=O` [Example 339] ({cBuCO(3,3-F2-1-CF3)}-[Pro(trans-4-F)][Gly(cPr)][NMehhhLys(Me)]L[X114]; lactam 3-C), the GI50 in test [1] is 5620 nM; in test [2] it was 10 nM; in test [5], 10 nM. In addition, the concentration for half-maximal inhibition (IC50) in test [3] was 20 nM; in test [4], 400 nM; in test [6] it was 20 nM.

As to `CC(C)C[C@@H]1NC(=O)[C@@H](N(C)C(=O)[C@@H](NC(=O)[C@@H]2C[C@@H](F)CN2C(=O)C2(C(F)(F)F)CC(F)(F)C2)C2CC2)CCCCCCCN(C)C(=O)[C@H](Cc2cc(Cl)ccc2-c2ccc(OC3CCOCC3)cc2)N(C)C1=O` [Example 340] ({cBuCO(3,3-F2-1-CF3)}-[Pro(trans-4-F)][Gly(cPr)][NMehhhLys(Me)]L[X93]; lactam 3-C), the GI50 in test [1] was 17300 nM; in test [2], 20 nM; in test [5], 20 nM. The values for the half-inhibitory concentration (IC50) in test [3], in test [4] and in test [6] were 20 nM, 1650 nM and 20 nM, respectively.

In the case of `CC(C)C[C@@H]1NC(=O)[C@@H](N(C)C(=O)[C@@H](NC(=O)[C@@H]2C[C@@H](F)CN2C(=O)C2(C(F)(F)F)CC(F)(F)C2)C2CC2)CCCCCCCN(C)C(=O)[C@H](Cc2cc(Cl)ccc2-c2ccc(N3CCNCC3)cc2)N(C)C1=O` [Example 341] ({cBuCO(3,3-F2-1-CF3)}-[Pro(trans-4-F)][Gly(cPr)][NMehhhLys(Me)]L[X115]; lactam 3-C), the concentration for 50% growth inhibition (GI50) in test [1] is 2440 nM; in test [2], 10 nM; in test [5], 10 nM. Further, the results for the IC50 in test [3], in test [4] and in test [6] were 20 nM, 510 nM and 20 nM, respectively.

As for `CC(C)C[C@@H]1NC(=O)[C@@H](N(C)C(=O)[C@@H](NC(=O)[C@@H]2C[C@@H](F)CN2C(=O)C2(C(F)(F)F)CC(F)(F)C2)C2CC2)CCCCCCCN(C)C(=O)[C@H](Cc2cc(Cl)ccc2-c2ccc(N3CCN(C4COC4)CC3)cc2)N(C)C1=O` [Example 346] ({cBuCO(3,3-F2-1-CF3)}-[Pro(trans-4-F)][Gly(cPr)][NMehhhLys(Me)]L[X50]; lactam 3-C), the GI50 came to 3680 nM in test [1], 10 nM in test [2] and 10 nM in test [5]. Also, the IC50 was 20 nM in test [3], 360 nM in test [4] and 20 nM in test [6].
